Activity calls are given as the source filed them. No cut-off for these calls is given here.
Key:
HT-29 = assay: Growth inhibition of human HT-29 cells after 48 hrs by SRB assay; type: functional; settings: HT-29, 48 h
HL-60(TB) = assay: Growth inhibition of human HL-60(TB) cells after 48 hrs by SRB assay; type: functional; settings: HL-60, 48 h
K562 [1] = assay: Growth inhibition of human K562 cells after 48 hrs by SRB assay; type: functional; settings: K562, 48 h
MOLT-4 = assay: Growth inhibition of human MOLT4 cells after 48 hrs by SRB assay; type: functional; settings: MOLT-4, 48 h
RPMI-8226 = assay: Growth inhibition of human RPMI8226 cells after 48 hrs by SRB assay; type: functional; settings: RPMI-8226, 48 h
SR = assay: Growth inhibition of human SR cells after 48 hrs by SRB assay; type: functional
A549 = assay: Growth inhibition of human A549 cells after 48 hrs by SRB assay; type: functional; settings: A549, 48 h
EKVX = assay: Growth inhibition of human EKVX cells after 48 hrs by SRB assay; type: functional
HOP-62 = assay: Growth inhibition of human HOP62 cells after 48 hrs by SRB assay; type: functional; settings: HOP-62, 48 h
HOP-92 = assay: Growth inhibition of human HOP92 cells after 48 hrs by SRB assay; type: functional; settings: HOP-92, 48 h
NCI-H226 = assay: Growth inhibition of human NCI-H226 cells after 48 hrs by SRB assay; type: functional; settings: NCI-H226, 48 h
NCI-H23 = assay: Growth inhibition of human NCI-H23 cells after 48 hrs by SRB assay; type: functional; settings: NCI-H23, 48 h
NCI-H322M = assay: Growth inhibition of human NCI-H322M cells after 48 hrs by SRB assay; type: functional
NCI-H460 = assay: Growth inhibition of human NCI-H460 cells after 48 hrs by SRB assay; type: functional; settings: NCI-H460, 48 h
NCI-H522 = assay: Growth inhibition of human NCI-H522 cells after 48 hrs by SRB assay; type: functional; settings: NCI-H522, 48 h
COLO 205 = assay: Growth inhibition of human COLO205 cells after 48 hrs by SRB assay; type: functional; settings: COLO 205, 48 h
HCC 2998 = assay: Growth inhibition of human HCC2998 cells after 48 hrs by SRB assay; type: functional; settings: HCC 2998, 48 h
HCT-116 = assay: Growth inhibition of human HCT116 cells after 48 hrs by SRB assay; type: functional; settings: HCT-116, 48 h
HCT-15 = assay: Growth inhibition of human HCT15 cells after 48 hrs by SRB assay; type: functional; settings: HCT-15, 48 h
LOX IMVI = assay: Growth inhibition of human LOXIMVI cells after 48 hrs by SRB assay; type: functional
Malme-3M = assay: Growth inhibition of human MALME-3M cells after 48 hrs by SRB assay; type: functional
M14 = assay: Growth inhibition of human M14 cells after 48 hrs by SRB assay; type: functional; settings: M14, 48 h
SK-MEL-2 = assay: Growth inhibition of human SK-MEL-2 cells after 48 hrs by SRB assay; type: functional; settings: SK-MEL-2, 48 h
SK-MEL-28 = assay: Growth inhibition of human SK-MEL-28 cells after 48 hrs by SRB assay; type: functional; settings: SK-MEL-28, 48 h
SK-MEL-5 = assay: Growth inhibition of human SK-MEL-5 cells after 48 hrs by SRB assay; type: functional; settings: SK-MEL-5, 48 h
UACC-257 = assay: Growth inhibition of human UACC257 cells after 48 hrs by SRB assay; type: functional; settings: UACC-257, 48 h
UACC-62 = assay: Growth inhibition of human UACC62 cells after 48 hrs by SRB assay; type: functional; settings: UACC-62, 48 h
IGROV-1 = assay: Growth inhibition of human IGROV1 cells after 48 hrs by SRB assay; type: functional; settings: IGROV-1, 48 h
OVCAR-3 = assay: Growth inhibition of human OVCAR-3 cells after 48 hrs by SRB assay; type: functional; settings: OVCAR-3, 48 h
OVCAR-4 = assay: Growth inhibition of human OVCAR4 cells after 48 hrs by SRB assay; type: functional; settings: OVCAR-4, 48 h
OVCAR-5 = assay: Growth inhibition of human OVCAR5 cells after 48 hrs by SRB assay; type: functional; settings: OVCAR-5, 48 h
OVCAR-8 = assay: Growth inhibition of human OVCAR8 cells after 48 hrs by SRB assay; type: functional; settings: OVCAR-8, 48 h
SK-OV-3 = assay: Growth inhibition of human SKOV3 cells after 48 hrs by SRB assay; type: functional; settings: SK-OV-3, 48 h
786-0 = assay: Growth inhibition of human 786-0 cells after 48 hrs by SRB assay; type: functional; settings: 786-0, 48 h
A498 = assay: Growth inhibition of human A498 cells after 48 hrs by SRB assay; type: functional; settings: A498, 48 h
ACHN = assay: Growth inhibition of human ACHN cells after 48 hrs by SRB assay; type: functional
CAKI-1 = assay: Growth inhibition of human Caki1 cells after 48 hrs by SRB assay; type: functional; settings: CAKI-1, 48 h
RXF 393 = assay: Growth inhibition of human […] cells after 48 hrs by SRB assay; type: functional; settings: RXF 393, 48 h
SN12C = assay: Growth inhibition of human SN12C cells after 48 hrs by SRB assay; type: functional
TK-10 = assay: Growth inhibition of human TK10 cells after 48 hrs by SRB assay; type: functional; settings: TK-10, 48 h
UO-31 = assay: Growth inhibition of human UO31 cells after 48 hrs by SRB assay; type: functional; settings: UO-31, 48 h
PC-3 = assay: Growth inhibition of human PC3 cells after 48 hrs by SRB assay; type: functional; settings: PC-3, 48 h
DU-145 = assay: Growth inhibition of human DU145 cells after 48 hrs by SRB assay; type: functional; settings: DU-145, 48 h
MCF7 = assay: Growth inhibition of human MCF7 cells after 48 hrs by SRB assay; type: functional; settings: MCF7, 48 h
NCI/ADR-RES = assay: Growth inhibition of human NCI/ADR-RES cells after 48 hrs by SRB assay; type: functional
MDA-MB-231 = assay: Growth inhibition of human MDA-MB-231 cells after 48 hrs by SRB assay; type: functional; settings: MDA-MB-231, 48 h
[2] = Growth inhibition of human Hs 578T cells after 48 hrs by SRB assay; type: functional
MDA-MB-435 = assay: Growth inhibition of human MDA-MB-435 cells after 48 hrs by SRB assay; type: functional; settings: MDA-MB-435, 48 h
BT-549 = assay: Growth inhibition of human BT549 cells after 48 hrs by SRB assay; type: functional; settings: BT-549, 48 h
T47D = assay: Growth inhibition of human T47D cells after 48 hrs by SRB assay; type: functional
K562 [3] = assay: Cell cycle arrest in human K562 cells assessed as accumulation at S phase at 140 uM after 24 hrs using propidium iodide staining by flow cytometry; type: functional, cell-based
K562 [4] = assay: Cell cycle arrest in human K562 cells assessed as accumulation at G2/M phase at 140 uM after 24 hrs using propidium iodide staining by flow cytometry; type: functional, cell-based
KM12 = assay: Growth inhibition of human KM12 cells after 48 hrs by SRB assay; type: functional; settings: KM12, 48 h
SW-620 = assay: Growth inhibition of human SW620 cells after 48 hrs by SRB assay; type: functional; settings: SW-620, 48 h
SF-268 = assay: Growth inhibition of human SF268 cells after 48 hrs by SRB assay; type: functional; settings: SF-268, 48 h
SF-295 = assay: Growth inhibition of human SF295 cells after 48 hrs by SRB assay; type: functional; settings: SF-295, 48 h
SF-539 = assay: Growth inhibition of human SF539 cells after 48 hrs by SRB assay; type: functional; settings: SF-539, 48 h
SNB-19 = assay: Growth inhibition of human SNB19 cells after 48 hrs by SRB assay; type: functional; settings: SNB-19, 48 h
SNB-75 = assay: Growth inhibition of human SNB75 cells after 48 hrs by SRB assay; type: functional; settings: SNB-75, 48 h
U-251 = assay: Growth inhibition of human U251 cells after 48 hrs by SRB assay; type: functional; settings: U-251, 48 h
[5] = read-out: LC50 (the source's name)

SMILES: O=C(Nc1cc(C(F)(F)F)ccc1F)Nc1n[nH]c2ccccc12
- GI50 (HT-29): > 100 µM
- GI50 (HL-60(TB)): > 100 µM
- GI50 (K562 [1]): > 100 µM
- GI50 (MOLT-4): > 100 µM
- GI50 (RPMI-8226): > 100 µM
- GI50 (SR): 55.4 µM
- GI50 (A549): > 100 µM
- GI50 (EKVX): > 100 µM
- GI50 (HOP-62): > 100 µM
- GI50 (HOP-92): > 100 µM
- GI50 (NCI-H226): > 100 µM
- GI50 (NCI-H23): > 100 µM
- GI50 (NCI-H322M): > 100 µM
- GI50 (NCI-H460): > 100 µM
- GI50 (NCI-H522): > 100 µM
- GI50 (COLO 205): > 100 µM
- GI50 (HCC 2998): > 100 µM
- GI50 (HCT-116): > 100 µM
- GI50 (HCT-15): > 100 µM
- GI50 (LOX IMVI): > 100 µM
- GI50 (Malme-3M): > 100 µM
- GI50 (M14): > 100 µM
- GI50 (SK-MEL-2): > 100 µM
- GI50 (SK-MEL-28): > 100 µM
- GI50 (SK-MEL-5): > 100 µM
- GI50 (UACC-257): > 100 µM
- GI50 (UACC-62): > 100 µM
- GI50 (IGROV-1): 0.758 µM
- TGI (IGROV-1): > 100 µM
- CC50 (IGROV-1; [5]): > 100 µM
- GI50 (OVCAR-3): > 100 µM
- GI50 (OVCAR-4): > 100 µM
- GI50 (OVCAR-5): > 100 µM
- GI50 (OVCAR-8): > 100 µM
- GI50 (SK-OV-3): > 100 µM
- GI50 (786-0): > 100 µM
- GI50 (A498): > 100 µM
- GI50 (ACHN): > 100 µM
- GI50 (CAKI-1): > 100 µM
- GI50 (RXF 393): > 100 µM
- GI50 (SN12C): > 100 µM
- GI50 (TK-10): > 100 µM
- GI50 (UO-31): > 100 µM
- GI50 (PC-3): > 100 µM
- GI50 (DU-145): > 100 µM
- GI50 (MCF7): 18.2 µM
- GI50 (NCI/ADR-RES): > 100 µM
- GI50 (MDA-MB-231): > 100 µM
- GI50 [2]: > 100 µM
- GI50 (MDA-MB-435): > 100 µM
- GI50 (BT-549): > 100 µM
- GI50 (T47D): 0.215 µM
- TGI (T47D): > 100 µM
- CC50 (T47D; [5]): > 100 µM
- Activity (K562 [3]): Active
- Activity (K562 [4]): Active
- GI50 (KM12): > 100 µM
- GI50 (SW-620): > 100 µM
- GI50 (SF-268): > 100 µM
- GI50 (SF-295): > 100 µM
- GI50 (SF-539): > 100 µM
- GI50 (SNB-19): > 100 µM
- GI50 (SNB-75): 40.1 µM
- GI50 (U-251): > 100 µM

From ChEMBL document CHEMBL1152860, “Synthesis and antiproliferative activity of 3-amino-N-phenyl-1H-indazole-1-carboxamides” (2009)
